Assay [1] addresses T1, Orai1/STIM1 (Homo sapiens, UniProt Q96D31).
T1 construct: c-myc (C); expressed in transfected cells
In words: Fluorescence-based assay of store-operated calcium entry in Orai1/STIM1 stable cells. The assay is classed as cell-based. Further details: key to Orai1/STIM1 (IC50, μmol): A ≦ 1.0 μmol; B > 1.0 μmol; -- = no fit. The following applies: HEK-293 cells stably expressing human STIM1 and Orai1, 50% inhibition of Peak-Basal fluo-4 signal, 30 minutes compound incubation; for IC50: read-out: Orai1/STIM1 (IC50, μmol). On the procedure: A. Fluorescence-Based Assay of Store-Operated Calcium Entry in Orail/STIM1 Stable Cells.
Cells stably expressing recombinant human STIM1 and Orail are generated by transfecting a human Orail expression plasmid (pcDNA3.1-Orail-cmyc) into HEK-293 cells stably overexpressing human STIM1 (Roos et al. 2005 JCB 169(3): 435-445). Colonies of cells stably expressing both STIM1 and Orail proteins are selected and then subcloned by limiting dilution. Cells were cultured at 37° C./6% CO2 in complete medium with 10% FBS and appropriate selection markers.
The day prior to performing the assay Orail/STIM1 stable cells are plated in 50 μL of complete medium at 90-95% confluence in a 384 well plate. Cells are grown at 37° C./6% CO2 overnight. On the day of the assay, 1.5 μM fluo-4-AM (Invitrogen) in complete medium is added to the cells, which are then incubated for 1 hour at RT. Cells are washed once in Ca^2+-free HBSS (Hank's buffered saline solution) and 35 μl of Ca^2+-free HBSS is added to each well. Test compounds are added to wells in a 10 μL Ca^2+-free HBSS solution, prepared at 4.5× the desired final concentration, and incubated for 30 minutes at RT. The initial baseline fluorescence signal is then measured with a FLIPR^384 (Molecular Devices) plate reader. Calcium entry is initiated by adding 5 μl of 10×CaCl2 (10 mM) in HBSS, and changes in cellular fluorescence are measured with the FLIPR^384 plate reader. In each well, the magnitude of the fluorescence signal as a result of calcium entry into the cell is determined by calculating the difference between the peak fluorescence signal measured after calcium addition and the initial baseline fluorescence signal (designated Peak-Basal). IC50 values are typically calculated as the concentration that inhibited 50% of the Peak-Basal signal (Table A).

The subject of assay [2] is RBL-2H3 cells. As to the kind of experiment: Fluorescence-based assay of store-operated calcium entry in RBL-2H3 cells. It is filed as cell-based. The settings on record: Rattus norvegicus, thapsigargin, 50% inhibition of Upslope (7 seconds after calcium addition), read-out: RBL-2H3 (IC50, μmol). The protocol: B. Fluorescence-Based Assay of Store-Operated Calcium Entry in RBL-2H3 Cells.
RBL-2H3 cells are obtained from ATCC and maintained in complete medium with 10% FBS at 37° C./6% CO2.
The day prior to performing the assay, RBL-2H3 cells are plated in 50 μL of complete medium in a 384 well plate. Cells are grown at 37° C./6% CO2 overnight and grow to 50-60% confluence by the next day. On the assay day, 1.5 μM Fluo-4-AM dye (Invitrogen) in complete medium is added and incubated for 1 hour at RT. Cells are washed twice in Ca^2+-free HBSS buffer and 35 μL Ca^2+-free HBSS buffer is added to each well. 10 μL of a test compound prepared in a Ca^2+-free HBSS solution at 4.5× of the desired concentration is added to a well and incubated for 5 minutes at RT. 10 μL of thapsigargin prepared in a Ca^2+-free HBSS solution at 5.5× of the desired concentration (5.5 uM) is added to each well and incubated for an additional 25 minutes. The initial baseline fluorescence signal is measured with a FLIPR^384 (Molecular Devices) plate reader. 5 μL of 12× calcium in HBSS (12 mM) is added and changes in cellular fluorescence are measured with the FLIPR^384 plate reader. In each well, the change in the fluorescent signal as a function of time due to calcium entry into the cell is determined by calculating the difference between the fluorescent signal measured 7 seconds after calcium addition and the initial baseline fluorescence signal at time zero (t=0). This parameter is designated Upslope. The IC50 value is calculated as the concentration at which 50% of the Upslope is inhibited.

Assay [3] deals with Jurkat cells. The following applies: Jurkat cells and colon cancer cells; cited from earlier work.
In assay [4] the target is STIM1 and Orail in HEK293 cells (Homo sapiens, UniProt Q96D31). The settings on record: HEK293 cells co-expressing STIM1 and Orai1; cited from earlier work.
Chain of STIM1 and Orail in HEK293 cells (Q96D31 whole entry): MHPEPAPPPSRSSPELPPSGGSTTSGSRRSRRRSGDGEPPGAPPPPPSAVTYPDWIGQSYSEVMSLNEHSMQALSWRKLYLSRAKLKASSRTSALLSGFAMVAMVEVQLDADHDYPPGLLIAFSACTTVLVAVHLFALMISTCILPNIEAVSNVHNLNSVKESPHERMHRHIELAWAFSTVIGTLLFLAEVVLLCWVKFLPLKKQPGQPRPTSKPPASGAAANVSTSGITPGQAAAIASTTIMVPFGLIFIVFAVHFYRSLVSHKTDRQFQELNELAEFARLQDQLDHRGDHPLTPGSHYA

T1 sequence (Q96D31 whole entry): as above

In the case of `Cn1nc(-c2ccccc2F)cc1-c1cnc(NC(=O)c2ccccc2F)[se]1`, the values for the IC50 in assay [1] and in assay [2] were above 1000 nM and at most 1000 nM, respectively. `Cn1nc(-c2ccccc2F)cc1-c1ccc(C(=O)Nc2ccncc2F)[se]1`: the IC50 in assay [1] and in assay [2] was at most 1000 nM throughout. In the case of `Cn1nc(-c2nccs2)cc1-c1ccc(C(=O)Nc2c(F)cccc2F)[se]1`, the IC50 in assay [1] and in assay [2] was at most 1000 nM throughout. For `O=C(Nc1ncc(-c2ccccc2C(F)(F)F)[se]1)c1ccccc1F`, the IC50 in assay [1] and in assay [2] was at most 1000 nM in each case. As for `Cc1ccc(Cl)cc1-c1cnc(NC(=O)c2ccccc2F)[se]1`, the IC50 in assay [1] and in assay [2] was at most 1000 nM throughout.

For the compound `Cn1nc(-c2nccs2)cc1-c1ccc(C(=O)Nc2ccncc2F)[se]1`, the IC50 in assay [1] and in assay [2] was at most 1000 nM throughout. `Cn1nc(-c2nccs2)cc1-c1ccc(C(=O)Nc2ccccc2F)[se]1`: the IC50 in assay [1] and in assay [2] was at most 1000 nM in each case. Take `Cc1cc2scnc2cc1-c1ccc(C(=O)Nc2c(F)cccc2F)[se]1`: the IC50 in assay [1] and in assay [2] was at most 1000 nM each time. `O=C(Nc1ccncc1F)c1ccc(-c2cc(C(F)(F)F)ccc2Cl)[se]1`: the IC50 in assay [1] and in assay [2] was above 1000 nM in each case. For the compound `Cn1nc(C(F)(F)F)cc1-c1ccc(C(=O)Nc2ccccc2F)[se]1`, the IC50 in assay [1] and in assay [2] was at most 1000 nM throughout. Take `O=C(Nc1[se]cc(-c2ccc(Cl)cc2)c1C(=O)O)c1nc2ccccc2s1`: the IC50 in assay [1] and in assay [2] was above 1000 nM throughout. Turning to `Cn1nc(-c2ccco2)cc1-c1ccc(C(=O)Nc2ccncc2F)[se]1`, the IC50 in assay [1] and in assay [2] was at most 1000 nM in each case. Consider `CCn1nc(C(F)(F)F)cc1-c1cnc(NC(=O)c2ccccc2F)[se]1`, for which the IC50 in assay [1] and in assay [2] was at most 1000 nM throughout.

As for `Cn1nc(C(F)(F)F)cc1-c1cnc(NC(=O)c2ccccc2Cl)[se]1`, the IC50 in assay [1] and in assay [2] was at most 1000 nM each time.

Consider `Cc1ccccc1-c1cnc(NC(=O)c2ccccc2Cl)[se]1`, for which the IC50 in assay [1] and in assay [2] was at most 1000 nM in each case. In the case of `Cn1nc(-c2ccco2)cc1-c1ccc(C(=O)Nc2c(F)cccc2F)[se]1`, in assay [1], the “Orai1/STIM1 (IC50, μmol)” value was “--”. In addition, the IC50 in assay [2] is above 1000 nM. In the case of `Cc1cscc1-c1cnc(NC(=O)c2ccccc2F)[se]1`, the IC50 was above 1000 nM in assay [1] and at most 1000 nM in assay [2].

As to `Cc1cc2c(cc1-c1cnc(NC(=O)c3ccccc3F)[se]1)OC(F)(F)O2`, the IC50 in assay [1] and in assay [2] was at most 1000 nM in each case. As to `Cc1nc2cc(Cl)c(-c3ccc(C(=O)Nc4ccccc4F)[se]3)cc2o1`, the IC50 in assay [1] and in assay [2] was at most 1000 nM throughout.

`Cn1nc(-c2ccccc2F)cc1-c1ccc(C(=O)Nc2c(F)cccc2F)[se]1`: the IC50 in assay [1] and in assay [2] was at most 1000 nM each time.

With `Cc1cc(OC(F)(F)F)ccc1-c1cnc(NC(=O)c2c(F)cccc2F)[se]1`, in assay [1], the “Orai1/STIM1 (IC50, μmol)” value was “--”. Also, the IC50 in assay [2] is at most 1000 nM. As to `Cn1nc(-c2ccccc2F)cc1-c1ccc(C(=O)Nc2ccccc2F)[se]1`, the IC50 in assay [1] and in assay [2] was at most 1000 nM in each case. Turning to `Cc1ccc(F)cc1-c1cnc(NC(=O)c2ccccc2F)[se]1`, the IC50 in assay [1] and in assay [2] was at most 1000 nM throughout. `Cn1nc(C(F)(F)F)cc1-c1cnc(NC(=O)c2ccccc2F)[se]1`: the IC50 in assay [1] and in assay [2] was at most 1000 nM throughout.

For `Cn1nc(C(F)(F)F)cc1-c1ccc(C(=O)Nc2c(F)cccc2F)[se]1`, the IC50 in assay [1] and in assay [2] was at most 1000 nM each time. `O=C(Nc1[se]cc(-c2ccc(Br)cc2)c1C(=O)O)c1nc2ccccc2s1`: the IC50 in assay [1] is above 1000 nM; in assay [2], at most 1000 nM. With `Cn1nc(-c2ccco2)cc1-c1ccc(C(=O)Nc2ccccc2F)[se]1`, the IC50 in assay [1] and in assay [2] was at most 1000 nM throughout.

With `Cn1nc(C(F)(F)F)cc1-c1cnc(NC(=O)c2c(F)cccc2F)[se]1`, the IC50 in assay [1] and in assay [2] was at most 1000 nM each time. For `Cc1ccccc1-c1cnc(NC(=O)c2ccccc2F)[se]1`, the IC50 in assay [1] and in assay [2] was at most 1000 nM throughout. On to `Cc1cc(OC(F)(F)F)ccc1-c1cnc(NC(=O)c2ccccc2F)[se]1`, for which the IC50 in assay [1] and in assay [2] was at most 1000 nM throughout. Turning to `Cc1cc2c(cc1-c1cnc(NC(=O)c3c(F)cccc3F)[se]1)OC(F)(F)O2`, the results for the IC50 in assay [1] and in assay [2] were above 1000 nM and at most 1000 nM, respectively. For `Cc1ccccc1-c1cnc(NC(=O)c2c(F)cccc2F)[se]1`, in that order: at most 1000 nM and at most 1000 nM. Consider `Cn1nc(C(F)(F)F)cc1-c1ccc(C(=O)Nc2ccncc2F)[se]1`, for which the IC50 in assay [1] and in assay [2] was at most 1000 nM throughout. On to `Cc1nnsc1C(=O)Nc1ccc(-n2nc(C(F)(F)F)cc2C(F)(F)F)cc1` [BTP-2], for which, in assay [3], the “inhibition of SOCE” value is “inhibits” and the inhibition of proliferation entry is “inhibits”. Regarding `NCCOB(c1ccccc1)c1ccccc1` [2-aminoethoxydiphenylborate], the “block of store-operated Ca2+ entry” value in assay [4] is given as “completely blocked”. `O=C(Nc1[se]cc(-c2ccc(Br)cc2)c1C(=O)O)c1cc2ccccc2o1`: the IC50 in assay [1] and in assay [2] was at most 1000 nM in each case.

These data come from patent publication US20120071516A1, “COMPOUNDS THAT MODULATE INTRACELLULAR CALCIUM” (CalciMedica, Inc., priority 2010, published 2012).
